Patent US20150164833A1, “NUTRITIONAL COMPOSITION CONTAINING A NEUROLOGIC COMPONENT OF URSOLIC ACID AND USES THEREOF” (MEAD JOHNSON NUTRITION COMPANY, priority 2013, published 2015)

Tested on: human adipose-derived stem cells (hADSCs)
Experiment: Neurogenesis (neuronal differentiation) of hADSCs in serum-free neuronal differentiation medium, phase contrast microscopy
Format: cell-based
Experimental: This example describes the neurogenesis of hADSCs by ursolic acid as compared to DHA (positive control) and hADSCs cultured in the absence of either ursolic acid and DHA (negative control). Ursolic acid was purchased from Sigma-Aldrich (Cat. No. U6753) and diluted in 95% ethanol to a concentration of […], giving a clear faint yellow stick solution that was then stored at −20° C.
hADSCs were purchased from Invitrogen®, also known as Life Technologies, of Carlsbad, Calif., U.S.A., and were cultured as near confluent monolayers in 100 mm culture plates within a maintenance medium consisting of Complete MesenPro RS™ medium with growth supplement and L-glutamine, also obtained from Invitrogen®. The process of culturing, passage, and seeding the hADSCs is described below. The cells were then subjected to removal and reseeded at a density of 0.5-1×10^4 cells/mL onto a 24-well culture plate with poly-L-ornithine and bovine plasma fibronectin coating. The culture medium is the same as the aforementioned maintenance medium. Three days after seeding, the culture medium was changed to a neuronal differentiation medium.
The subculture of hADSCs was performed when cell culture reached confluence. […]

## C[C@H]1[C@H](C)CC[C@]2(C(=O)O)CC[C@]3(C)C(=CC[C@@H]4[C@@]5(C)CC[C@H](O)C(C)(C)[C@@H]5CC[C@]43C)[C@H]12 [ursolic acid, 3-beta-3-hydroxy-urs-12-ene-28-oic-acid]
30-120 μg/mL ursolic acid, phase contrast microscopy at 24, 48 and 96 hours
  neurogenesis of hADSCs (cells undergoing neurogenesis): A large percentage of cells underwent neurogenesis
Ursolic acid at 60 μg/mL, phase contrast microscopy, FIG. 1C
  neuronal morphology of hADSCs: neuronal morphological changes and neurite outgrowth
